This is an account of results in ChEMBL document CHEMBL1201862, “PubChem BioAssay data set” (2004).

Assay [1] can be described thus: reduction of Shn3 3'UTR firefly luciferase signal, dose response, Schnurri-3 inhibitor project, cell-based, Clone20 osteoblasts, cherry-pick, set 2 (AID 720490).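 Further: actives lower the luminescence signal as inhibitors.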 The format is functional.
A short description of assay [2]: Shn3 3'UTR reporter inhibitors, dose response, cell-based, Clone20 osteoblasts, firefly luciferase, cherry-picked (AID 624132).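 Further: firefly luciferase luminescence from reporter carrying the Shn3 3'UTR in osteoblasts.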 Type of assay: functional.
Assay [3] is described as follows: control 3'UTR Renilla luciferase suppression, dose response, counter-screen for Shn3 inhibitor project, cell-based, Clone20-Shn3RL, cherry-picked (AID 624133). Type of assay: functional. On the technique in general: A counterscreen serves to expose hits that act by an unwanted route or on another target.
Assay [4] deals with Matrix metalloproteinase-14 (Homo sapiens, UniProt P50281). As to the kind of experiment: Dose Response confirmation of uHTS hits for a small molecule inhibitors of MT1-MMP activation in a fluorescence assay set 1. The format is functional.
The nature of assay [5]: cytotoxicity in MIN6 insulinoma cells, dose response, cytotoxicity control, cell-based, mouse insulinoma (AID 2122).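 Further: confirmatory high-throughput counterscreen run to flag cytotoxic compounds; mouse MIN-6 beta cells carrying an insulin promoter eGFP reporter.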 The format is functional.
A short description of assay [6]: cytotoxicity in HEK-293T cells, dose response, cytotoxicity control for TCR NF-kB inhibitor project, luminescence, T-cell screen hits (AID 489026).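 Further: cells exposed to compound about 14 hours before the viability readout.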 The format is functional, cell-based.
The nature of assay [7]: cells. Type of assay: functional, cell-based. Conditions: HEK-CNG.
Assay [8] is described as follows: insulin promoter down-regulators in MIN6 cells, imaging, high-content screening, mouse beta cells (AID 1628). Type of assay: functional.
A short description of assay [9]: HepG2 cell cytotoxicity, dose response, cytotoxicity control for Shn3 inhibitor project, CellTiter-Glo, cherry-picked (AID 624134). The format is functional, cell-based.
A further assay deals with INS1. The experiment in a line: beta cell apoptosis inhibitors, cytokine rescue, dose response, luminescence, retest (AID 449756).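 Further: cell death triggered by IL-1 beta plus TNF-alpha plus IFN-gamma mixture; protective hits raise ATP signal compared with cytokine alone wells.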 The following applies: Rattus norvegicus. The format is functional, cell-based.
In the next assay the target is Galanin receptor type 3 (Homo sapiens, UniProt O60755). The experiment in a line: Fluorescence-based cell-based primary high throughput dose response assay to identify antagonists of the Galanin Receptor 3 (GalR3). Type of assay: functional.
Galanin receptor type 3, sequence (O60755 whole entry): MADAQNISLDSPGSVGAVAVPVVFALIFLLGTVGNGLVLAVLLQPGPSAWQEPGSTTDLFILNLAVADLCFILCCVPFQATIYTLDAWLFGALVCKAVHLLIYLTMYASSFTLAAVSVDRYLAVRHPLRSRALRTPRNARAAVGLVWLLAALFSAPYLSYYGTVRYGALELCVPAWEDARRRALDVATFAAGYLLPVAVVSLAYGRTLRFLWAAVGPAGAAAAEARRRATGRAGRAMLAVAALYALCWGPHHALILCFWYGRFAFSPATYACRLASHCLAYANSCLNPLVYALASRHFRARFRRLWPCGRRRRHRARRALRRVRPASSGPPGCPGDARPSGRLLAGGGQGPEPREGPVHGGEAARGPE
Assay [10] is described as follows: HEK293T cytotoxicity, dose response, cytotoxicity control for miR-122 modulator project, cell-based, activator set, cherry-pick (AID 720690).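 Further: HEK293T human cells scored for general mammalian cytotoxicity.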 The format is functional.
The target of assay [11] is T1, DNA repair protein RAD52 homolog (Homo sapiens, UniProt P43351).
T1 sequence (P43351 whole entry): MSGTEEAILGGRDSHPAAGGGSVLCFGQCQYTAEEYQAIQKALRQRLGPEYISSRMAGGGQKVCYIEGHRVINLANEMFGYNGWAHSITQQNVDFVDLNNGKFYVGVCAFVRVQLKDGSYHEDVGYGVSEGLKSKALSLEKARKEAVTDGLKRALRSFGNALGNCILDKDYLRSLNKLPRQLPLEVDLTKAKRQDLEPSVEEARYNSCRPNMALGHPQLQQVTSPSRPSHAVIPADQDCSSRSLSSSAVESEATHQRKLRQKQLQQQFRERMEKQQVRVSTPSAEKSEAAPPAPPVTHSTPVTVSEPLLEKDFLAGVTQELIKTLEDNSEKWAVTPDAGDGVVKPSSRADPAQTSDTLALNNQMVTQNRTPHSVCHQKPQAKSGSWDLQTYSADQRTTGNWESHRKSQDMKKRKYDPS
Type of assay: functional, biochemical.

The nature of assay [12]: HEK293T cytotoxicity, dose response, cytotoxicity control for miR-122 modulator project, cell-based, inhibitor set, cherry-pick, set 2 (AID 720697). Type of assay: functional.
The subject of a further assay is HEK293. The experiment in a line: inhibitors of LMP1-driven NF-kB reporter, dose response, cell-based, HEK293, luciferase, cherry-pick (AID 588343). Conditions: Homo sapiens. The format is functional.
The nature of assay [13]: cells. The following applies: HEK293.
A short description of assay [14]: cells.
The target of assay [15] is T2, Oxysterols receptor LXR-beta (Homo sapiens, UniProt P55055).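 Further: Cell-based luminescence dose-response assay of agonist activity at LXR, run as a confirmatory counterscreen to a daf-12 agonist screen; HEK293 cells with Gal4-LXR fusion and GAL4-driven luciferase reporter; agonist potency from rising luciferase signal of a Gal4-LXR reporter.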
T2 sequence (P55055 whole entry): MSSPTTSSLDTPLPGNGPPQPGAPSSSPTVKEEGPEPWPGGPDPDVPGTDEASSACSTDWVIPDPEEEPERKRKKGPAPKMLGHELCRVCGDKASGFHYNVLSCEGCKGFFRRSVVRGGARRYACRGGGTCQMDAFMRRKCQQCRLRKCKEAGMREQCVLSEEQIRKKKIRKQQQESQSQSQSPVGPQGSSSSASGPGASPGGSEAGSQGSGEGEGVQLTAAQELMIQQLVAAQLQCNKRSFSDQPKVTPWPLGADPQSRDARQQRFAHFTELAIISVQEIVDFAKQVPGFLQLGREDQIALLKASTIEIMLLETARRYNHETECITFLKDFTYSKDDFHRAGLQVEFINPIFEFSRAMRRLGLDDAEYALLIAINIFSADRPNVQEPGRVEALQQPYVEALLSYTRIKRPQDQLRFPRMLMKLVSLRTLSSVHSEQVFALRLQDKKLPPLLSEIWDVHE
The format is functional, cell-based.

A short description of assay [16]: cytotoxicity in COV434 cells, dose response, cytotoxicity control for PAX8 inhibitor project, cell-based, plate reader, dry powder, SA7 (AID 743145). The format is functional.
Assay [17] in a line: cytotoxicity in OV-90 ovarian cancer cells, dose response, PAX8 inhibitor project, cell-based, plate reader, dry powder, SA8 (AID 743149). The format is functional.
The next assay deals with Paired box protein Pax-8 (Homo sapiens, UniProt Q06710). The experiment in a line: inhibitors of PAX8-driven TPO luciferase reporter, dose response, RMG-I cells, cherry-pick (AID 687027).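 Further: luciferase reporter driven by Pax8 target thyroperoxidase promoter measured by SteadyGlo luminescence.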 The format is functional, cell-based.
Paired box protein Pax-8, sequence (Q06710 whole entry): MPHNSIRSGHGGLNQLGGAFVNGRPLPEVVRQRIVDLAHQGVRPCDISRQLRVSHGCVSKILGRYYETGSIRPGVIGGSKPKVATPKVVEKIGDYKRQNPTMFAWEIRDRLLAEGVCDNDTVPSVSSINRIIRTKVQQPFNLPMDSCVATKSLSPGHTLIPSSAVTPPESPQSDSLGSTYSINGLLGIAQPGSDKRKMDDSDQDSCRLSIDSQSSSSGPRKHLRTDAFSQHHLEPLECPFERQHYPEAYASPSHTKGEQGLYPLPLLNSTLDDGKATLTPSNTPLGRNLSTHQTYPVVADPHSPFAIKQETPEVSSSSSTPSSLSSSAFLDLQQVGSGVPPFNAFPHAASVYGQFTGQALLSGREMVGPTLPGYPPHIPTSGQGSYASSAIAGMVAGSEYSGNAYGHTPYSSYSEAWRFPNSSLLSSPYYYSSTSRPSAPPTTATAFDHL
Assay [18] can be described thus: cytotoxicity dependent on PAX8, dose response, cell-based, plate reader, dry powder (AID 743049). The format is functional.
Assay [19] in a line: PAX5 activity inhibitors, dose response, selectivity assay for PAX8 inhibitor project, cell-based, plate reader, dry powder samples (AID 743047).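 Further: HEK293 cells carrying a Pax5 driven CD19 promoter luciferase reporter; potency of inhibitors that lower reporter luminescence.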 The format is functional.
A short description of assay [20]: NIH:OVCAR-3 ovarian cancer cell cytotoxicity, dose response, PAX8 inhibitor project, plate reader, dry powder samples (AID 743044). The format is functional, cell-based.

Structures are written as SMILES. Active and inactive are the calls of the source.

Usually AC50 stands for the concentration at which the activity in the assay is half-maximal. `CCOC(=O)C1CCCN(S(=O)(=O)c2ccc(S(=O)(=O)N3CCCC3)cc2)C1` (stereo not given): the AC50 in assay [1] is 2.1 µM (active); in assay [2], 0.821 µM (active); in assay [3], 2.94 µM (active).

For orientation: IC50 means the concentration that inhibits the measured activity by half. For the compound `CNc1ccc(N=Nc2cc[n+]([O-])cc2C)cc1C`, the IC50 in [4] is > 80 µM (inactive).

Broadly, the EC50 is the midpoint of the concentration-response curve. As for `Cc1cc(C)nc(SCC(=O)Nc2ccnc3ccccc23)n1`, the IC50 in assay [5] was 0.398 µM (active); in assay [6] it was > 80 µM (inactive); in assay [8], 0.695 µM (active); at Galanin receptor type 3 it was 0.874 µM (active). Besides, in the assay “cells [7]”, the EC50 was > 29.9 µM (inactive). In addition, the AC50 is 0.462 µM (active) in assay [2], > 70 µM (inactive) in [9], < 0.26 µM (active) in assay [3] and 4.76 µM (active) with INS1.

Turning to `COc1ccc(-c2c(-c3ccccc3)c(C(=O)C(=O)NCCCN(C)C)n3ccc4cc(OC)c(OC)cc4c23)cc1OC`, the AC50 is 17.2 µM (active) in assay [10], 3.15 µM (active) in assay [11] and 4.39 µM (active) in assay [12].

For the compound `CCc1ccccc1NC(=O)COC(=O)c1c(C)nsc1NC`, the AC50 was 133 µM (active) in the assay on HEK293; 2.76 µM (active) in assay [1]; 2.48 µM (active) in assay [2]; 64.7 µM (active) in assay [9]; 9.08 µM (active) in assay [3].

In the case of `Cn1nc(-c2ccc(Cl)cc2)c2cc(C(=O)N3CCN(c4ccccc4)CC3)sc21`, the AC50 in the assay “cells [13]” is > 52 µM (inactive).

Take `CC(C)(C)NC(=O)NC(=O)COc1ccc(Br)cc1Br`: the EC50 (in the assay “cells [14]”; in [15]) was > 67.5 µM (inactive) in each case.

Take `CC(C)c1cc(C(=O)OCC(=O)N2CCN(C(=O)c3ccco3)CC2)c(O)c(C(C)C)c1`: the AC50 in assay [16] is 13.7 µM (active); in assay [17] it was 81.3 µM (active); on Paired box protein Pax-8 it was 1.58 µM (active); in assay [18], 10.8 µM (active); in assay [19], 45.8 µM (active); in assay [20], 49.9 µM (active).
